Consider four compounds from patent US12077503B2, “Substituted cyclic amides and their use as herbicides” (FMC CORPORATION, priority 2015, dated 2024).

Like-named read-outs stand apart in the source and are kept apart here.

Common to all, as to type: in vivo
Assay [1] concerns Galium (catchweed bedstraw, Galium aparine). Kind of assay: Test A postemergence. The following applies: Galium, post-emergence, 240 h, Postemergence; for pest or weed control at 125 g/ha: 125 g ai/ha, visual rating about 10 d after treatment, read-out: Galium plant response rating (0 to 100 scale); for pest or weed control at 500 g/ha: 500 g ai/ha, visual injury, 0 to 100 scale (0 no effect, 100 complete control), approx. 10 d, read-out: Plant response rating, Galium. Summed up:
(§1)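 Seeded soil received test chemicals as a preemergence directed spray, and seedlings at one to two leaves, 2–10 cm tall, received them postemergence, in a non-phytotoxic, surfactant-containing solvent mixture. Pots were held in a greenhouse for approximately 10 d, then rated for injury from 0, no effect, to 100, complete control.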

The subject of assay [2] is Kochia (Kochia scoparia). Briefly: Test A postemergence. The following applies: Bassia scoparia, post-emergence, 240 h, Postemergence; for pest or weed control at 125 g/ha: 125 g ai/ha, visual rating about 10 d after treatment, read-out: Kochia plant response rating (0 to 100 scale); for pest or weed control at 500 g/ha: 500 g ai/ha, visual injury, 0 to 100 scale (0 no effect, 100 complete control), approx. 10 d, read-out: Plant response rating, Kochia. Summed up:
as §1

The test system of assay [3] is barnyardgrass (Echinochloa crus-galli). Kind of assay: Test A postemergence. The following applies: Echinochloa crus-galli, post-emergence, 240 h, Postemergence; for pest or weed control at 125 g/ha: 125 g ai/ha, visual rating about 10 d after treatment, read-out: Barnyardgrass plant response rating (0 to 100 scale, 0 no effect, 100 complete control); for pest or weed control at 500 g/ha: 500 g ai/ha, visual injury, 0 to 100 scale (0 no effect, 100 complete control), approx. 10 d, read-out: Plant response rating, Barnyardgrass. Summed up: as §1

The test system of assay [4] is blackgrass (Alopecurus myosuroides). Briefly: Test A postemergence. The following applies: Alopecurus myosuroides, post-emergence, 240 h, Postemergence; for pest or weed control at 125 g/ha: 125 g ai/ha, visual rating about 10 d after treatment, read-out: Blackgrass plant response rating (0 to 100 scale); for pest or weed control at 500 g/ha: 500 g ai/ha, visual injury, 0 to 100 scale (0 no effect, 100 complete control), approx. 10 d, read-out: Plant response rating, Blackgrass. Summed up: as §1

For assay [5], the system named is corn (Zea mays). Kind of assay: Test A postemergence. Conditions: Zea mays, post-emergence, 240 h, Postemergence; for plant injury at 125 g/ha: 125 g ai/ha, visual rating about 10 d after treatment, read-out: Corn plant response rating (0 to 100 scale); for Corn plant response rating (crop injury, 0 = no effect, 100 = complete kill) at 500 g/ha: 500 g ai/ha, visual injury, 0 to 100 scale (0 no effect, 100 complete control), approx. 10 d. Summed up:
as §1

Assay [6] deals with giant foxtail (Setaria faberii). Briefly: Test A postemergence. The following applies: Setaria faberi, post-emergence, 240 h, Postemergence; for pest or weed control at 125 g/ha: 125 g ai/ha, visual rating about 10 d after treatment, read-out: Foxtail, Giant plant response rating (0 to 100 scale); for pest or weed control at 500 g/ha: 500 g ai/ha, visual injury, 0 to 100 scale (0 no effect, 100 complete control), approx. 10 d, read-out: Plant response rating, Foxtail, Giant. Summed up:
as §1

The test system of assay [7] is pigweed (Amaranthus retroflexus). Kind of assay: Test A postemergence. The following applies: Amaranthus retroflexus, post-emergence, 240 h, Postemergence; for pest or weed control at 125 g/ha: 125 g ai/ha, visual rating about 10 d after treatment, read-out: Pigweed plant response rating (0 to 100 scale); for pest or weed control at 500 g/ha: 500 g ai/ha, visual injury, 0 to 100 scale (0 no effect, 100 complete control), approx. 10 d, read-out: Plant response rating, Pigweed. Summed up:
as §1

For assay [8], the system named is ragweed (common ragweed, Ambrosia elatior). Briefly: Test A postemergence. The following applies: Ambrosia artemisiifolia, post-emergence, 240 h, Postemergence; for pest or weed control at 125 g/ha: 125 g ai/ha, visual rating about 10 d after treatment, read-out: Ragweed plant response rating (0 to 100 scale); for pest or weed control at 500 g/ha: 500 g ai/ha, visual injury, 0 to 100 scale (0 no effect, 100 complete control), approx. 10 d, read-out: Plant response rating, Ragweed. Summed up:
as §1

For assay [9], the system named is ryegrass, Italian (Italian ryegrass, Lolium multiflorum). Kind of assay: Test A postemergence. The following applies: Lolium multiflorum, post-emergence, 240 h, Postemergence; for pest or weed control at 125 g/ha: 125 g ai/ha, visual rating about 10 d after treatment, read-out: Ryegrass, Italian plant response rating (0 to 100 scale); for pest or weed control at 500 g/ha: 500 g ai/ha, visual injury, 0 to 100 scale (0 no effect, 100 complete control), approx. 10 d, read-out: Plant response rating, Ryegrass, Italian. Summed up:
as §1

Assay [10] concerns wheat (Triticum aestivum). Kind of assay: Test A postemergence. The following applies: Triticum aestivum, post-emergence, 240 h, Postemergence; for plant injury at 125 g/ha: 125 g ai/ha, visual rating about 10 d after treatment, read-out: Wheat plant response rating (0 to 100 scale); for plant injury at 500 g/ha: 500 g ai/ha, visual injury, 0 to 100 scale (0 no effect, 100 complete control), approx. 10 d, read-out: Plant response rating, Wheat. Summed up:
as §1

In assay [11] the test system is barnyardgrass (Echinochloa crus-galli). Briefly: Test B flooded paddy test. Conditions: Echinochloa crus-galli, 250 g ai/ha, Flood. Summed up: (§2)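 2-leaf plants; pots flooded 3 cm over soil; cpd added to paddy water; depth held; greenhouse 13–15 d; visual rating vs controls, 0 = no effect, 100 = complete control.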
In assay [12] the test system is ducksalad (Heteranthera limosa). Kind of assay: Test B flooded paddy test. Conditions: Heteranthera limosa, 250 g ai/ha, Flood. Summed up:
as §2

The test system of assay [13] is rice (Oryra sativa). Briefly: Test B flooded paddy test. Conditions: Oryza sativa, 250 g ai/ha, Flood. Summed up: as §2
Assay [14] relates to sedge, umbrella (small-flower umbrella sedge, Cyperus difformis). Briefly: Test B flooded paddy test. Conditions: Cyperus difformis, 360 h, Flood, 250 g ai/ha; visually evaluated after 13 to 15 d; read-out: Plant response rating, Sedge, Umbrella (0 to 100 scale where 0 is no effect and 100 is complete control). Summed up: as §2
The mark [15] stands for this setting: 0 to 100 scale where 0 is no effect and 100 is complete control, read-out: Barnyardgrass plant response rating.
Where [16] appears, read: 0 to 100 scale where 0 is no effect and 100 is complete control, read-out: Ducksalad plant response rating.
[17] abbreviates: 0 to 100 scale where 0 is no effect and 100 is complete control, read-out: Rice plant response rating.

Regarding `CN1C[C@H](c2cccc(C(C)(F)F)c2)[C@@H](C(=O)Nc2ccc(F)cc2F)C1=O` [Compound 1319], the pest or weed control at 125 g/ha in assay [1] stood at 60%; in assay [2], 20%; in assay [3] it was 90%; in assay [4] it was 70%; in [6], 90%; in [7] it was 0%. Also, the pest or weed control at 125 g/ha was 0% in assay [8] and 40% in [9]. The pest or weed control at 500 g/ha came to 60% in assay [1]; 60% in assay [2]; 90% in assay [3]; 80% in assay [4]; 90% in assay [6]; 50% in [7]. The pest or weed control at 500 g/ha in assay [8] turned out to be 0%; in assay [9], 60%. The plant injury at 125 g/ha turned out to be 70% in assay [5] and 60% in assay [10]. Further, the Corn plant response rating (crop injury, 0 = no effect, 100 = complete kill) at 500 g/ha in assay [5] turned out to be 80%. Further, the plant injury at 500 g/ha in [10] was determined as 60%. For the same compound, the pest or weed control at 250 g/ha in assay [11] (setting [15]) worked out at 90%; in assay [12] (setting [16]) it was 90%; in assay [13] (setting [17]) it was 0%; in [14], 0%.
With `CN1C[C@H](c2ccc3c(c2)CCO3)[C@@H](C(=O)Nc2cccc(F)c2F)C1=O` [Compound 1324], the pest or weed control at 125 g/ha in assay [1] worked out at 30%; in assay [2] it was 30%; in assay [3] it was 90%; in assay [4], 40%; in [6] it was 90%; in assay [7], 0%. Moreover, the pest or weed control at 125 g/ha in assay [8] worked out at 20%; in assay [9], 30%. Also, the pest or weed control at 500 g/ha was determined as 50% in assay [1]; 70% in assay [2]; 90% in assay [3]; 60% in assay [4]; 90% in assay [6]; 20% in assay [7]. In addition, the pest or weed control at 500 g/ha in assay [8] was determined as 40%; in assay [9], 50%. The results for the plant injury at 125 g/ha in [5] and in assay [10] were 60% and 30%, respectively. In assay [5], this compound gave a Corn plant response rating (crop injury, 0 = no effect, 100 = complete kill) at 500 g/ha of 80%. The plant injury at 500 g/ha in assay [10] came out at 70%. Moreover, the pest or weed control at 250 g/ha in [11] (setting [15]) stood at 75%; in [12] (setting [16]) it was 65%; in assay [13] (setting [17]), 0%; in assay [14] it was 0%.
Take `Cc1c(F)ccc([C@H]2CNC(=O)[C@@H]2C(=O)Nc2ccccc2F)c1F` [Compound 1326]: the pest or weed control at 125 g/ha in assay [1] stood at 0%; in assay [2] it was 0%; in [3], 70%; in assay [4], 0%; in assay [6] it was 0%; in assay [7] it was 0%. Besides, the pest or weed control at 125 g/ha in [8] and in assay [9] was 0% in each case. Besides, the pest or weed control at 500 g/ha in assay [1] was 20%; in [2] it was 0%; in assay [3], 90%; in assay [4] it was 0%; in [6], 0%; in assay [7], 0%. The pest or weed control at 500 g/ha in assay [8] is 0%; in assay [9] it was 20%. Further, the plant injury at 125 g/ha in assay [5] and in [10] was 0% each time. In [5], this compound gave a Corn plant response rating (crop injury, 0 = no effect, 100 = complete kill) at 500 g/ha of 0%. In addition, the plant injury at 500 g/ha in assay [10] came to 0%. In addition, the pest or weed control at 250 g/ha in [11] (setting [15]) is 0%; in [12] (setting [16]), 70%; in assay [13] (setting [17]), 0%; in [14], 0%.
For `C=CCOc1cccc(C2CN(C)C(=O)C2C(=O)Nc2ccccc2F)c1` (stereo not drawn) [Compound 1329], the pest or weed control at 125 g/ha worked out at 30% in assay [1]; 40% in assay [2]; 90% in assay [3]; 20% in [4]; 90% in assay [6]; 0% in [7]. The pest or weed control at 125 g/ha in [8] and in assay [9] was 0% throughout. Moreover, the pest or weed control at 500 g/ha in assay [1] came out at 60%; in [2] it was 50%; in [3], 90%; in assay [4], 60%; in [6], 90%; in assay [7] it was 0%. For the same compound, the pest or weed control at 500 g/ha in assay [8] was 0%; in assay [9], 50%. In addition, the plant injury at 125 g/ha came out at 30% in assay [5] and 0% in assay [10]. For the same compound, the Corn plant response rating (crop injury, 0 = no effect, 100 = complete kill) at 500 g/ha in assay [5] worked out at 50%. Besides, the plant injury at 500 g/ha in assay [10] came to 20%. For the same compound, the pest or weed control at 250 g/ha in [11] (360 h, visually evaluated after 13 to 15 d, read-out: Plant response rating, Barnyardgrass (0 to 100 scale where 0 is no effect and 100 is complete control)) worked out at 60%; in assay [12] (360 h, visually evaluated after 13 to 15 d, read-out: Plant response rating, Ducksalad (0 to 100 scale where 0 is no effect and 100 is complete control)), 70%; in assay [13] (360 h, visually evaluated after 13 to 15 d, read-out: Plant response rating, Rice (0 to 100 scale where 0 is no effect and 100 is complete control)) it was 0%; in assay [14] it was 0%.
